Data on one sequence can be found in patent publication US20260200977A1, “PEPTIDE HAVING ACTIVITY OF IMPROVING STATE OF SKIN, AND USE THEREOF” (CAREGEN CO., LTD., priority 2022, published 2026).

One experiment deals with HaCaT cells. Description: Reactive oxygen species increased by ultraviolet irradiation, DCFH-DA flow cytometry. It is filed as cell-based. The settings on record: 50 μM or 1000 μM peptide, 15 mJ/cm^2 ultraviolet rays, 24 hours, FACS, FIG. 6. The method, then:
In this example, the aim was to confirm the effect of the peptide according to an embodiment on the antioxidant effect in damaged skin, by evaluating the change in the level of reactive oxygen species in skin cells increased by ultraviolet irradiation.
Specifically, HaCaT cells were seeded in a 6-well plate at a density of 5×10^5 cells/well and cultured for 24 hours. Next, the cells were washed once with serum-free DMEM media, and 50 μM or 1000 μM of a peptide consisting of an amino acid sequence of SEQ ID NO: 1 was dispensed into 1 mL of the serum-free media, and cultured in a CO2 incubator at 37° C. for […]. Next, the above culture was transferred to an e-tube, mixed with 1 ml of PBS, and dispensed into a well plate. Next, using a UV irradiator (VILBER LOURMAT, Cat No.: 3102-BSU, France), 15 mJ/cm^2 ultraviolet rays were irradiated to HaCaT cells. Next, the PBS in the well plate was removed, 900 μL of the culture medium in which the peptides were dispensed was added, and the plate was cultured in a CO2 incubator at 37° C. for 24 hours. Next, the culture was treated with DCFH-DA (2′,7′-dichlorofluorescin diacetate), wrapped in foil, and cultured in a CO2 incubator at 37° C. for 30 minutes. […] After washing the centrifuged cells with PBS, fluorescence values were measured through flow cytometry (FACS, BD, USA). […]
(In general: Flow cytometry measures light scatter and fluorescence of single cells or particles in a stream.)

The subject of a further experiment is NIH3T3 cells. The experiment is described as follows: Proliferation of skin cells, MTT (change in cell survival rate). It is filed as cell-based, mouse. The note with it: 50 μM or 100 μM peptide, serum-free media, 72 hours, MTT absorbance 540 nm, FIG. 1. The method, then:
In this example, the aim was to confirm the effect of a peptide according to an example on proliferation of skin cells, by evaluating changes in survival rate of NIH3T3 cells, which are mouse fibroblasts.
Specifically, NIH3T3 cells were seeded in a […] at a density of 1×10^4 cells/well and cultured for 24 hours. Next, the cells were washed once with serum-free DMEM media, and 50 μM or 100 μM of a peptide consisting of an amino acid sequence of SEQ ID NO: 1 was dispensed into 200 μL of the serum-free media, and cultured in a CO2 incubator at 37° C. for 72 hours. Next, the culture was washed twice with PBS, and MTT solution was dispensed into each well at a concentration of 0.5 mg/ml. Next, it was shaded from light and cultured in a CO2 incubator at 37° C. for 4 hours, and the absorbance at 540 nm was measured using a microplate reader (Molecular Devices, USA).

For another experiment, the system named is fibronectin. The experiment is described as follows: Expression of extracellular matrix component by RT-PCR in NIH3T3 cells. It is filed as cell-based, mouse. The note with it: 10 μM, 50 μM or 1000 μM peptide, 24 hours, FIG. 2, FIG. 3B. The method, then:
(§1) In this example, the aim was to confirm the effect of the peptide according to an example on improving endogenous skin aging, including improvement of wrinkles and enhancement of elasticity, etc., by evaluating the expression levels of collagen type 1 (CoI1a1), fibronectin, elastin, and hyaluronic acid, which are known components of the dermis.
(§2) Specifically, NIH3T3 cells were seeded in a 6-well plate at a density of 3×10^5 cells/well and cultured for 24 hours. Next, the cells were washed once with serum-free DMEM media, and 10 μM, 50 μM or 1000 μM of a peptide consisting of an amino acid sequence of SEQ ID NO: 1 was dispensed into 1 mL of the serum-free media, and cultured in a CO2 incubator at 37° C. for 24 hours. Next, the culture was washed twice with PBS, and RNA was isolated from the culture using easy blue (iNtRON, Cat. No.: 17061, Korea). Next, using an RT kit (Enzynomics, Cat. NO.: RT200, Korea), the isolated RNA was reverse transcribed to synthesize the respective cDNA. Next, using the synthesized 1 μg cDNA, primers for CoI1a1, fibronectin, or elastin, and a PCR kit (Enzynomics, Cat. No.: P581T, Korea), polymerase chain reaction (PCR) was performed. Meanwhile, in this example, an untreated group was used as a control group, and a group to which IGF was added was used as a positive control group, the nucleotide sequences of the primers used in this example are shown in Table 2 below.

The test system of a further experiment is collagen type 1 (CoI1a1). Described as above. In kind it is cell-based, mouse. The settings on record: 10 μM, 50 μM or 1000 μM peptide, 24 hours, FIG. 2, FIG. 3A. The method, then: as §1, §2
The subject of another experiment is elastin. Described as above. In kind it is cell-based, mouse. The settings on record: 10 μM, 50 μM or 1000 μM peptide, 24 hours, FIG. 2, FIG. 3C. How it is done: as §1, §2
The next experiment has as its system sirtuin-1 (SIRT-1). Description: Expression of skin barrier factor by RT-PCR in HaCaT cells. In kind it is cell-based. The note with it: 10 μM, 50 μM or 1000 μM peptide, 24 hours, FIG. 4, FIG. 5A. The method, then:
(§3) In this example, the aim was to confirm the effect of the peptides according to an example on strengthening the skin barrier, by evaluating the expression levels of sirtuin-1 (SIRT-1) or aquaporin-3 (AQP3).
(§4) Specifically, HaCaT cells were seeded in a 6-well plate at a density of 3×10^5 cells/well and cultured for 24 hours. Next, the cells were washed once with serum-free DMEM media, and 10 μM, 50 μM or 1000 μM of the peptide consisting of the amino acid sequence of SEQ ID NO: 1 was dispensed into 1 mL of the serum-free media, and cultured in a CO2 incubator at 37° C. for 24 hours. Next, the culture was washed twice with PBS, and RNA was isolated from the culture using easy blue (iNtRON, Cat. No.: 17061, Korea). Next, using an RT kit (Enzynomics, Cat. NO.: RT200, Korea), the isolated RNA was reverse transcribed to synthesize the respective cDNA. Next, using the synthesized 1 μg cDNA, primers for SIRT-1 or AQP3, and a PCR kit (Enzynomics, Cat. No.: P581T, Korea), polymerase chain reaction (PCR) was performed. Meanwhile, in this example, an untreated group was used as a control group, and a group to which EGF was added was used as a positive control group, the nucleotide sequences of the primers used in this example are shown in Table 3 below.

A further experiment relates to aquaporin-3 (AQP3). Described as above. It is filed as cell-based. The note with it: 10 μM, 50 μM or 1000 μM peptide, 24 hours, FIG. 4, FIG. 5B. How it is done: as §3, §4

With TNRTEVEG [SEQ ID NO: 1], the “level of reactive oxygen species in keratinocytes increased by ultraviolet irradiation” value in the experiment on HaCaT cells was “reduced”. The proliferation of fibroblasts entry with NIH3T3 cells is listed as “promoted”. Besides, the expression of fibronectin result in the experiment with fibronectin was “increased”. The “expression of CoI1a1” value in the experiment with collagen type 1 (CoI1a1) is given as “increased”. For the same sequence, the expression of elastin entry with elastin is given as “increased”. Moreover, the “expression of SIRT-1” value in the experiment on sirtuin-1 (SIRT-1) is reported as “increased”. In the experiment on aquaporin-3 (AQP3), the “expression of AQP3” value is listed as “increased”.
